Results: US20170224654A1, “PHARMACEUTICAL COMPOSITIONS AND METHODS FOR COUNTERING CHEMOTHERAPY INDUCED CARDIOTOXICITY” (Stem Cell Theranostics, Inc., priority 2016, published 2017)

Columns and labels:
TOPOIIβ = target: T1, TOPOIIβ (Homo sapiens, UniProt Q02880); assay: kDNA decatenation assay; assay type: biochemical
T1 construct: purchased Inspiralis

[1] = tested on: TOPOII enzymes (TOPOIIα and TOPOIIβ); assay: kDNA decatenation assay, TOPOIIα and TOPOIIβ jointly; assay type: biochemical; conditions: discussion of Table 1
Method: 200 ng of kinetoplast DNA (kDNA) was incubated with one enzymatic unit of TOPOIIα or TOPOIIβ enzyme (Inspiralis) and with various concentrations of MYR or DEX at 37° C. for 30 min. The reaction was then separated on 1% agarose gel for visualization of decatenated DNA (bottom band). The efficiency of catalytic inhibition was quantified by measuring the relative intensity of the band.

[2] = tested on: induced pluripotent stem cell-derived cardiomyocytes; assay: Long term toxicity on electrophysiology (active electrodes, MEA); assay type: cell-based; conditions: various concentrations, at least 5 days
Method: Samples were either mock-treated with 0.1% DMSO, or treated with various concentrations of the indicated drug. Following treatment, the percentage of active electrodes in each sample was measured for at least 5 days. Percentage of active electrodes was quantified and graphed in a time course.

TOPOIIα = target: T2, TOPOIIα (Homo sapiens, UniProt P11388); assay: kDNA decatenation assay; assay type: biochemical
T2 construct: purchased Inspiralis
T2 sequence (P11388 whole entry): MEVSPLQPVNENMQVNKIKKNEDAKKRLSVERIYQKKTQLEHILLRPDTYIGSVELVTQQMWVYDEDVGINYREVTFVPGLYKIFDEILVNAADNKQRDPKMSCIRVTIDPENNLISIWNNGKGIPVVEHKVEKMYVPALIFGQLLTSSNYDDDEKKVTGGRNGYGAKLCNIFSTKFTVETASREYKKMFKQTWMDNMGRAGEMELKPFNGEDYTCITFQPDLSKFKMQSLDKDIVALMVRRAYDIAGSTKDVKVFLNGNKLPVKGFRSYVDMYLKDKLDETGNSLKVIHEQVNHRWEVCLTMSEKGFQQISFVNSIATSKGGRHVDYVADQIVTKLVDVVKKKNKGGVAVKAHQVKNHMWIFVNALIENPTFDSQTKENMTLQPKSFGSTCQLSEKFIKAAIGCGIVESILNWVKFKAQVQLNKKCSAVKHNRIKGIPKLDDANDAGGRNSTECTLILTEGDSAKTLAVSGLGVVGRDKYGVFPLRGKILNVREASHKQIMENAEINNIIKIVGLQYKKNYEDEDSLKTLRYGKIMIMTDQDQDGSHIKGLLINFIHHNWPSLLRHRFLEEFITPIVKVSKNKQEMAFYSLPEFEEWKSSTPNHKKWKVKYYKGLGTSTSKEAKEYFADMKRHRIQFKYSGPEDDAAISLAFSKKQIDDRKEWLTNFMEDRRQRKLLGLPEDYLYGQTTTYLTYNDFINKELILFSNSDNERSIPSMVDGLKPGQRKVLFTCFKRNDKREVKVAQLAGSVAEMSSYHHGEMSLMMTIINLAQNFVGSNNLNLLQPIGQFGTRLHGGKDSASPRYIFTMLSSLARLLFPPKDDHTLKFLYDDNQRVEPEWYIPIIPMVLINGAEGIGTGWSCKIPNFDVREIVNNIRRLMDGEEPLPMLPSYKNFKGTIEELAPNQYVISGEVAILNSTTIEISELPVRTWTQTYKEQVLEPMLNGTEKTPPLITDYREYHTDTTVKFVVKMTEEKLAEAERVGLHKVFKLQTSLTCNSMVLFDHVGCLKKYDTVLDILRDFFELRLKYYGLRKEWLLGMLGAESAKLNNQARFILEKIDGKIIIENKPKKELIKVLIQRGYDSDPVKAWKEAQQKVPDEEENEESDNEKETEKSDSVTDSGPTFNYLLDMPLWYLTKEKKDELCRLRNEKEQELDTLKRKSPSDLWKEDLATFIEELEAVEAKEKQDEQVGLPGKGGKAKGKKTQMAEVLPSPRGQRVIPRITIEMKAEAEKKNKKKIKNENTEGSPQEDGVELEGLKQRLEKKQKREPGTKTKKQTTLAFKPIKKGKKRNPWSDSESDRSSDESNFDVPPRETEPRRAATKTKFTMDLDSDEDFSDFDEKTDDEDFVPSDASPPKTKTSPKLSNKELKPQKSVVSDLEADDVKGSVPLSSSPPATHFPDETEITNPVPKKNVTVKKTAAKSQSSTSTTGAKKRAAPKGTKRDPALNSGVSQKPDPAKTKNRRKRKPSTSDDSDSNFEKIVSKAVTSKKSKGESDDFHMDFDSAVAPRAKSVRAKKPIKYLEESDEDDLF

[3] = tested on: MDA-MB-231 breast cancer cells; assay: Cell viability with doxorubicin (CellTiter-Glo); assay type: cell-based; conditions: co-treated with increasing concentrations of doxorubicin, 72 hours
[4] = tested on: Doxorubicin treated human iPSC-derived cardiomyocytes; assay: iPSC-CM protection of MYR analogs against doxorubicin; assay type: cell-based; conditions: discussion of Table 1
A549 cells (lung cancer) = assay: Cell viability with doxorubicin (CellTiter-Glo); assay type: cell-based; conditions: co-treated with increasing concentrations of doxorubicin, 72 hours
Method: A549 cells (lung cancer) were cultured for 1 day before performing experiments. […] XLFit was used for curve fitting.

[5] = tested on: Human iPSC-derived cardiomyocytes; assay: Cytotoxicity of MYR analogs to cardiomyocytes; conditions: for cytotoxicity / toxic effects to cardiomyocytes (in words): at or below 100 μM as stated
[6] = tested on: cardiomyocytes derived from human induced pluripotent stem cells; assay: Doxorubicin-induced mitochondrial toxicity (TMRM-negative cells), 48 hours; assay type: cell-based; conditions: 1 μM doxorubicin, KAE 17 μM, AMB 0.76 μM, MES 10 μM, NAC 50 μM, Dex 160 μM, VIT 115 μM
Method: Following treatment, the samples were incubated with a tetramethylrhodamine methyl ester (TMRM) dye to indicate mitochondrial health, and a second dye to identify cell nuclei.

T1 sequence (Q02880 whole entry): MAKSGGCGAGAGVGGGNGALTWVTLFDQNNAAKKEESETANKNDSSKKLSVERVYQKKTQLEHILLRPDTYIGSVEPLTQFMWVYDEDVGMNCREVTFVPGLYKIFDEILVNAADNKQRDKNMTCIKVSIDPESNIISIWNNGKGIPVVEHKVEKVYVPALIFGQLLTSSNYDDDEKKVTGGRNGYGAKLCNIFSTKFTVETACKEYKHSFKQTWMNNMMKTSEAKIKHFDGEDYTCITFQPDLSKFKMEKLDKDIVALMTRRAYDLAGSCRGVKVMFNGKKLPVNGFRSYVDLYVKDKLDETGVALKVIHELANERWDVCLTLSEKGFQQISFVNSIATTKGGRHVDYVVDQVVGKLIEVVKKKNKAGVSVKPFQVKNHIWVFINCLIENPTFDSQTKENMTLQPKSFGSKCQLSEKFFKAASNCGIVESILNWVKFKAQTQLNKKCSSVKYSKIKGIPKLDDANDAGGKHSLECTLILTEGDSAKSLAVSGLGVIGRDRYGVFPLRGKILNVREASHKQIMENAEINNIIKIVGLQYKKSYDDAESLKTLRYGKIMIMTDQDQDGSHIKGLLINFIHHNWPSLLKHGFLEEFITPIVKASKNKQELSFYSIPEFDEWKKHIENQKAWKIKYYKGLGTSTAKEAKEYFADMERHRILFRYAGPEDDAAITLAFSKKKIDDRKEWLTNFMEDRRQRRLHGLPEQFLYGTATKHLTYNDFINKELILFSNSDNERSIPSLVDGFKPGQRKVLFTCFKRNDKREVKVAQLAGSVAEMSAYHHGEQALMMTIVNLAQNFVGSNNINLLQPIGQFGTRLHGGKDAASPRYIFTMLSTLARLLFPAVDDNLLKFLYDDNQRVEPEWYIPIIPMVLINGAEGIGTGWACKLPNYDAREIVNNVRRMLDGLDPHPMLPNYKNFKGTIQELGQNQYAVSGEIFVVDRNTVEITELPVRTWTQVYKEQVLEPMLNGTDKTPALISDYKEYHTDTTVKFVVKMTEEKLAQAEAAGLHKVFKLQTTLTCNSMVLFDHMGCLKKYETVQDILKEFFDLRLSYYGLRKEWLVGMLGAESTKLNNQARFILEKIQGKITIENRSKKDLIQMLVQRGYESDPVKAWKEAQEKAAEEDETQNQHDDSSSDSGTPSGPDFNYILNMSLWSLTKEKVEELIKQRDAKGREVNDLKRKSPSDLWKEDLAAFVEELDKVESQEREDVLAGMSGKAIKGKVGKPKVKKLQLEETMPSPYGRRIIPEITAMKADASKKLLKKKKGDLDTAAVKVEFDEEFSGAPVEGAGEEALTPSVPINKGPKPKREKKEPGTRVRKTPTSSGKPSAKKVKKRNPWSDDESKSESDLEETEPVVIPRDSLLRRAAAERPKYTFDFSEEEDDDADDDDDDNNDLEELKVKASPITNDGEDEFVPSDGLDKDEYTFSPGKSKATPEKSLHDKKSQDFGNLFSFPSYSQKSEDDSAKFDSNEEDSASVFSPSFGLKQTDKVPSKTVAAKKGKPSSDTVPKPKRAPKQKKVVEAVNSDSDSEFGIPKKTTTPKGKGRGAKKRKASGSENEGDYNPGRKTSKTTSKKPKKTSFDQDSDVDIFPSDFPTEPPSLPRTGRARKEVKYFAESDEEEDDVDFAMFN

Structure (SMILES): O=c1c(O)c(-c2ccc(O)cc2)oc2cc(O)cc(O)c12 [Compound 7, 3,5,7,4′-tetrahydroxyflavone]
- TOPOIIβ Inhibition (TOPOIIβ): −
- TOPOII (TOPOIIα and TOPOIIβ) inhibition (in words) [1]: did not exhibit any inhibitory effect
- number of active electrodes relative to the mock-treated sample (in words) [2]: no observable decrease
- TOPOIIα Inhibition (TOPOIIα): −
- percentage of cell death vs doxorubicin in the absence of a protective agent [3]: no significant difference
- cardioprotection (in words) [4]: moderate level of cardioprotection
- percentage of cell death vs doxorubicin in the absence of a protective agent (A549 cells (lung cancer)): no significant difference
- Toxicity ([5]; 100 μM): −
- cytotoxicity / toxic effects to cardiomyocytes (in words) ([5]; listed as Kaempferol): without some level of cytotoxicity at 100 μM
- cytotoxicity / toxic effects to cardiomyocytes (in words) ([5]; listed as kaempferol): did not show toxic effects below 100 μM
- decrease in mitochondrial toxicity vs doxorubicin alone [6]: at least 60%
